Test system: MelanoDerm Mel-300B tissues of the dark skin type
Test: Reduction in melanin content after treatment of MelanoDerm tissues of the dark skin type
Type: cell-based
Settings: absorption at 450 nm, control = 100; for Melanin content in % 8 days of treatment, measured after 16 days: 10 mM per tissue topically, then a further eight days in normal medium without test substance; for Melanin content in % after 16 days of treatment: test substance applied topically as aqueous solution, 10 mM per tissue, renewed every 48 hours
Experimental: Determination of the Reduction in Melanin Content after the Treatment of Melanoderm Tissues of the Dark Skin Type with Test Substances
Test substances: compound 1 and cystamine as standard • Cultivation of the Tissues and Application of the Test Substances
The tissues, treated according to the manufacturer's instructions, were transferred to 6-well plates containing 3 ml of medium per well. The tissues were placed on membrane inserts (Transwell-Clear from Corning). 2 ml of medium were pipetted into the lower compartment and 1 ml of medium into the upper compartment. The test substances were applied topically as an aqueous solution at a rate of 10 mM per tissue. The medium and the test substance were renewed every 48 hours by rinsing the surface of the tissues with 500 μl of warm PBS and applying fresh test substance. After 8 days the test substance was removed from two tissues per treatment type and cultivation was continued for a further eight days with normal medium not containing test substance. The other two tissues per treatment type were incubated further with test substance. The experiment lasted a total of 16 days. • Extraction of the Melanin
The membranes with the pigmented epidermis were cut out of the holders with a scalpel and transferred to screw-capped Eppendorf tubes. 200 μl of 1% SDS in 10 mM Tris, 0.05 mM EDTA pH 6.8 and 20 μl of Proteinase K were pipetted into each tube. The Eppendorf tubes were incubated overnight in a Thermomixer at 45° C. The following morning a further 20 μl of Proteinase K were pipetted into each tube and incubation was continued for 6 hours. The lysate was rendered basic by the addition of 25 μl of 500 mM NaHCO3 and incubated in the Thermomixer for 30 min at 80° C. Fats and proteins were removed from the lysate by treatment with 200 μl of methanol/chloroform (2:1). 3×100 μl of supernatant were pipetted into a 96-well plate and the absorption was measured at 450 nm. • Results

SMILES	Melanin content in % 8 days of treatment, measured after 16 days [%]	Melanin content in % after 16 days of treatment [%]
N=C(N)NCCSSCCNC(=N)N [Compound 1]	23	12
NCCSSCCN [Cystamine (standard), bis(2-aminoethyl)disulfide]	52	30

Source: patent US20120177710A1, “TOPICALLY APPLICABLE COMPOSITION FOR USE AS A SKIN BLEACHING AGENT” (DSM IP ASSETS B.V., priority 2005, published 2012)
